Biological target: CRBN truncate (318-426) (Homo sapiens (Human), UniProt Q96SW2)
Assay: Measurement of molecular interactions using surface plasmon resonance (SPR), Biacore T200
Format: binding
Conditions: 25° C., immobilized CRBN truncate, upper limit of measurement 200 μM
Method in brief: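 Compound injections used 60 s association and 120 s dissociation in HEPES pH 7.5 buffer (150 mM NaCl, 1 mM TCEP, 0.005% Tween 20, 2% DMSO). The ligand was CRBN truncate 318-426 bearing a C-terminal Avi-tag, immobilised via streptavidin on an SA sensor chip.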

CRBN truncate (318-426), sequence (Q96SW2 318-426): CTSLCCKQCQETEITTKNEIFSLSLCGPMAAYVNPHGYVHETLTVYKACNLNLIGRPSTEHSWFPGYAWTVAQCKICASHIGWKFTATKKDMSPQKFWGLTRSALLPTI

Row | SMILES | Kd [µM]
1 | CC(C)(C)OC(=O)c1ccc(N2CCC3(CC=CC(=O)NC3=O)C2)nc1 (stereo not shown) [Example 131, tert-Butyl 6-(6,8-dioxo-2,7-diazaspiro [4.6]undec-9-en-2-yl) pyridine-3-carboxylate] | ≥ 100
2 | CC1(c2cccc(N)c2)CCCC(=O)NC1=O (stereo not shown) [Example 133, 3-(3-Aminophenyl)-3-methyl-azepane-2,7-dione] | ≥ 100
3 | Cn1c(=O)n(C2CCCC(=O)NC2=O)c2ccc(/C=C/C(=O)OC(C)(C)C)cc21 (stereo not shown) [Example 140, tert-Butyl (E)-3-[1-(2,7-oxazepan-3-yl)-3-methyl-2-oxo-benzimidazol-5-yl]-2-propenoate] | ≥ 100
4 | CC(C)(C)OC(=O)NCCCCCCCc1cn(C2CCCC(=O)NC2=O)nn1 (stereo not shown) [Example 147, tert-Butyl N-[7-[1-(2,7-dioxoazepan-3-yl)triazol-4-yl]heptyl]carbamate] | ≥ 100
5 | CC(C)(C)OC(=O)COc1ccccc1-c1cn(C2CCCC(=O)NC2=O)nn1 (stereo not shown) [Example 149, tert-Butyl 2-[2-[1-(2,7-dioxoazepan-3-yl)triazol-4-yl]phenoxy]acetate] | ≥ 100
6 | CC(C)(C)OC(=O)NCCCCCCc1ccc(-c2cn(C3CCCC(=O)NC3=O)nn2)cc1 (stereo not shown) [Example 150, tert-Butyl N-[6-[4-[1-(2,7-dioxoazepan-3-yl)triazol-4-yl]phenyl]hexyl]carbamate] | ≥ 100
7 | Cn1ccc2c(C(=O)N3CCC4(CCCC(=O)NC4=O)C3)cccc21 (stereo not shown) [Example 151, 2-(1-Methylindole-4-carbonyl)-2,7-diazaspiro [4.6]undecane-6,8-dione] | ≥ 100
8 | O=C1CCCC2(CCN(C(=O)c3ccc4scnc4c3)C2)C(=O)N1 (stereo not shown) [Example 152, 2-(1,3-Benzothiazole-5-carbonyl)-2,7-diazaspiro[4.6]undecane-6,8-dione] | ≥ 100
9 | O=C1CCCC2(CCN(C(=O)c3cnn4ccccc34)C2)C(=O)N1 (stereo not shown) [Example 153, 2-(Pyrazolo[1,5-a]pyridine-3-carbonyl)-2,7-diazaspiro[4.6]undecane-6,8-dione] | ≥ 100
10 | O=C1CCCC2(CCN(C(=O)c3nc4ccccc4o3)C2)C(=O)N1 (stereo not shown) [Example 154, 2-(1,3-Benzoxazole-2-carbonyl)-2,7-diazaspiro[4.6]undecane-6,8-dione] | ≥ 100
11 | Nc1ccc(C(=O)N2CCC3(CCCC(=O)NC3=O)C2)cc1 (stereo not shown) [Example 155, 2-(4-Aminobenzoyl)-2,7-diazaspiro[4.6]undecane-6,8-dione] | ≥ 100
12 | Cc1ccc(NC(=O)NCc2ccccc2C(=O)N2CCC3(CCCC(=O)NC3=O)C2)cc1Cl (stereo not shown) [Example 156, 1-(3-Chloro-4-methylphenyl)-3-[[2-(6,8-dioxo-2,7-diazaspiro[4.6]undecane-2-carbonyl)phenyl]methyl]urea] | ≥ 100
13 | CC(C)(C)OC(=O)NCCCCCCc1ccccc1C(=O)N1CCC2(CCCC(=O)NC2=O)C1 (stereo not shown) [Example 159, tert-ButylN-[6-[2-(6,8-dioxo-2,7-diazaspiro[4.6]undecane-2-carbonyl)phenyl]hexyl]carbamate] | ≥ 100
14 | CC(C)(C)OC(=O)NCCCCCCn1ccc2c(C(=O)N3CCC4(CCCC(=O)NC4=O)C3)cccc21 (stereo not shown) [Example 162, tert-Butyl N-[6-[4-(6,8-dioxo-2,7-diazaspiro [4.6]undecane-2-carbonyl)indol-1-yl]hexyl]carbamate] | 50 to 100
15 | O=C1NC(=O)C2(Nc3cccc(Br)c3)CCC1CC2 [Example 165, 1-(3-Bromoanilino)-3-azabicyclo [3.2.2]nonane-2,4-dione] | ≥ 100
16 | O=C1NC(=O)C2(c3ccc(Br)cc3)CCC1CC2 [Example 167, 1-(4-Bromophenyl)-3-azabicyclo [3.2.2]nonane-2,4-dione] | ≥ 100
17 | N#Cc1cc([N+](=O)[O-])ccc1N1CCC2(CCCC(=O)NC2=O)C1 (stereo not shown) [Example 177, 2-(6,8-dioxo-2,7-diazaspiro[4.6]undecan-2-yl)-5-nitrobenzonitrile] | 50 to 100
18 | Cn1c(C(=O)OC(C)(C)C)cc2c(N3CCC4(CCCC(=O)NC4=O)C3)ncnc21 (stereo not shown) [Example 180, tert-Butyl 4-(6,8-dioxo-2,7-diazaspiro[4.6]undecan-2-yl)-7-methylpyrrolo[2,3-d]pyrimidine-6-carboxylate] | 50 to 100
19 | Nc1nccc(N2CCC3(CCCC(=O)NC3=O)C2)n1 (stereo not shown) [Example 182, 2-(2-Aminopyrimidin-4-yl)-2,7-diazaspiro[4.6]undecane-6,8-dione] | ≥ 100
20 | CC(C)(C)OC(=O)c1ccc(N2CCC3(CCCC(=O)NC3=O)C2)nn1 (stereo not shown) [Example 184, tert-Butyl 6-(6,8-dioxo-2,7-diazaspiro[4.6]undecan-2-yl)pyridazine-3-carboxylate] | ≥ 100
21 | CC(C)(C)OC(=O)NCCCNc1nccc(N2CCC3(CCCC(=O)NC3=O)C2)n1 (stereo not shown) [Example 185] | ≥ 100

Results, then the molecule that gave them:

Row | Kd [µM] | SMILES
22 | < 50 | CC(C)(C)OC(=O)c1ccc(N2CCC3(CCCC(=O)NC3=O)C2)cc1 (stereo not shown) [Example 128, tert-Butyl 4-(6,8-dioxo-2,7-diazaspiro [4.6]undecan-2-yl) benzoate]
23 | 50 to 100 | CC(=O)Nc1cccc(C2(C)CCCC(=O)NC2=O)c1 (stereo not shown) [Example 134, N-[3-(3-Methyl-2,7-dioxoazepan-3-yl)phenyl]acetamide]
24 | < 50 | O=C1CCCC(n2nc(I)c3ccccc32)C(=O)N1 (stereo not shown) [Example 135, 3-(3-Iodoindazol-1-yl)azepane-2,7-dione]
25 | 50 to 100 | CC(C)(C)OC(=O)/C=C/c1nn(C2CCCC(=O)NC2=O)c2ccccc12 (stereo not shown) [Example 136]
26 | 50 to 100 | CC(C)(C)OC(=O)Cn1c(=O)n(C2CCCC(=O)NC2=O)c2ccccc21 (stereo not shown) [Example 138, tert-Butyl 2-[3-(2,7-dioxoazepan-3-yl)-2-oxo-benzimidazol-1-yl]acetate]
27 | 50 to 100 | Cn1c(=O)n(C2CCCC(=O)NC2=O)c2ccc(Br)cc21 (stereo not shown) [Example 139, 3-(5-Bromo-3-methyl-2-oxobenzimidazol-1-yl) azepane-2,7-dione]
28 | 50 to 100 | Cn1c(=O)n(C2CCCC(=O)NC2=O)c2ccc(CCC(=O)OC(C)(C)C)cc21 (stereo not shown) [Example 141]
29 | < 50 | NC(=O)c1nn(-c2ccc(C(=O)NCCOCCOCCNC(=O)c3ccnc(N4CCC5(CCCC(=O)NC5=O)C4)c3)cc2)cc1NC(=O)c1coc(-c2ccnc(NCC3CC3)c2)n1 (stereo not shown) [Example 142, N-[3-Carbamoyl-1-[4-[2-[2-[2-[[2-(6,8-dioxo-2,7-diazaspiro [4.6]undecan-2-yl)pyridine-4-carbonyl]amino]ethoxy]ethoxy]ethylcarbamoyl]phenyl]-pyrazol-4-yl]-2-[2-(cyclopropylmethylamino)-4-pyridyl]oxazole-4-carboxamide]
30 | < 50 | NC(=O)c1nn(-c2ccc(C(=O)NCCOCCOCCNC(=O)c3ccc(N4CCC5(CCCC(=O)NC5=O)CC4=O)nc3)cc2)cc1NC(=O)c1coc(-c2ccnc(NCC3CC3)c2)n1 (stereo not shown) [Example 143, N-[3-Carbamoyl-1-[4-[2-[2-[2-[[6-(4,7,9-trioxo-3,8-diazaspiro [5.6]dodecan-3-yl)pyridine-3-carbonyl]amino]ethoxy]ethoxy]ethylcarbamoyl]phenyl]pyrazol-4-yl]-2-[2-(cyclopropylmethylamino)-4-pyridyl]oxazole-4-carboxamide]
31 | < 50 | NC(=O)c1nn(-c2ccc(C(=O)NCCOCCOCCNC(=O)CN3CCC4(CCCC(=O)NC4=O)CC3=O)cc2)cc1NC(=O)c1coc(-c2ccnc(NCC3CC3)c2)n1 (stereo not shown) [Example 144, N-[3-Carbamoyl-1-[4-[2-[2-[2-[[2-(4,7,9-trioxo-3,8-diazaspiro [5.6]dodecan-3-yl)acetyl]amino]ethoxy]ethoxy]ethylcarbamoyl]phenyl]pyrazol-4-yl]-2-[2-(cyclopropylmethylamino)-4-pyridyl]oxazole-4-carboxamide]
32 | 50 to 100 | O=C1CCCC(n2cc(CCCCCCCC(=O)OCc3ccccc3)nn2)C(=O)N1 (stereo not shown) [Example 148, Benzyl 8-[1-(2,7-dioxoazepan-3-yl)triazol-4-yl]octanoate]
33 | < 50 | Cc1ccc(NC(=O)NCc2ccc(C(=O)N3CCC4(CCCC(=O)NC4=O)C3)cc2)cc1Cl (stereo not shown) [Example 157, 1-(3-Chloro-4-methylphenyl)-3-[[4-(6,8-dioxo-2,7-diazaspiro[4.6]undecane-2-carbonyl)phenyl]methyl]urea]
34 | 50 to 100 | CC(C)(C)OC(=O)NCCCCCCc1cccc(C(=O)N2CCC3(CCCC(=O)NC3=O)C2)c1 (stereo not shown) [Example 158, tert-Butyl N-[6-[3-(6,8-dioxo-2,7-diazaspiro[4.6]undecane-2-carbonyl)phenyl]hexyl]carbamate]
35 | 50 to 100 | CC(C)(C)OC(=O)NCCCCCCc1ccc(C(=O)N2CCC3(CCCC(=O)NC3=O)C2)cc1Cl (stereo not shown) [Example 160, tert-Butyl N-[6-[2-chloro-4-(6,8-dioxo-2,7-diazaspiro[4.6]undecane-2-carbonyl)phenyl]hexyl]carbamate]
36 | 50 to 100 | CC(C)(C)OC(=O)NCCCCCCc1cccc2c(C(=O)N3CCC4(CCCC(=O)NC4=O)C3)cccc12 (stereo not shown) [Example 161, tert-Butyl N-[6-[5-(6,8-dioxo-2,7-diazaspiro[4.6]undecane-2-carbonyl)naphthalen-1-yl]hexyl]carbamate]
37 | < 50 | CC(C)(C)OC(=O)N1CCC(c2cnc(N3CCC4(CCCC(=O)NC4=O)C3)nc2)CC1 (stereo not shown) [Example 168-2, tert-Butyl 4-[2-(6,8-dioxo-2,7-diazaspiro [4.6]undecan-2-yl)pyrimidin-5-yl]piperidine-1-carboxylate]
38 | < 50 | COC(=O)c1cc2c(N3CCC4(CCCC(=O)NC4=O)C3)ncnc2s1 (stereo not shown) [Example 176, Methyl 4-(6,8-dioxo-2,7-diazaspiro[4.6]undecan-2-yl)thieno[2,3-d]pyrimidine-6-carboxylate]
39 | < 50 | CC(=O)N1CCc2nc(N3CCC4(CCCC(=O)NC4=O)C3)ncc2C1 (stereo not shown) [Example 178, 2-(6-Acetyl-7,8-dihydro-5H-pyrido[4,3-d]pyrimidin-2-yl)-2,7-diazaspiro[4.6]undecane-6,8-dione]
40 | < 50 | N#Cc1ccc(N2CCC3(CCCC(=O)NC3=O)C2)cc1 (stereo not shown) [Example 179, 4-(6,8-Dioxo-2,7-diazaspiro[4.6]undecan-2-yl)benzonitrile]
